Here are results for 39 compounds from patent US11369565B2, “Amino-pyrimidine skeletal muscle modulators” (Cytokinetics, Inc., priority 2010, dated 2022).

This assay concerns rabbit skeletal myofibrils (approximately 90% fast fibers). The experiment in a line: Activation of fast skeletal myofibrils (PUMA coupled-enzyme ATPase assay at pCa25). It is filed as biochemical. Conditions: concentration at which the compound increased the enzymatic activity by 40%; calcium at pCa25; PM12 buffer pH 6.8. An outline of the steps: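 In pH 6.8 PM12 buffer (12 mM Pipes, 2 mM MgCl2, 1 mM DTT), ADP from myosin regenerated via pyruvate kinase/lactate dehydrogenase, with absorbance change at 340 nm from NADH oxidation as read-out. Calcium set at pCa25; Triton-washed rabbit skeletal myofibrils (about 90% fast fibres) used.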
With `NC(=O)c1ccnc(NC2(c3ccc(F)cc3)CCC2)n1` [2-{[(4-fluorophenyl)cyclobutyl]amino} pyrimidine-4-carboxamide], the “Mean AC1.4” value is recorded as “C (C=10-20 uM)”.

For `Clc1cccnc1C1(CNc2ncccn2)CCC1` [{[(3-chloro(2-pyridyl))cyclobutyl]methyl}pyrimidin-2-ylamine], the “Mean AC1.4” value was “D (D=>20 uM)”.

For the compound `NC(=O)c1ccc(=O)n(-c2cnc(NC[C@]3(c4ncccc4F)C[C@H](F)C3)nc2)c1` [1-[2-({[3-fluoro-1-(3-fluoro(2-pyridyl))cyclobutyl]methyl)amino)pyrimidin-5-yl]-6-oxohydropyridine-3-carboxamide], the “Mean AC1.4” value is “D (D=>20 uM)”.

Take “2-{[2-(4-f1uorophenyl)-2- methylpropyl]amino}-5,6,7,8- tetrahydropyridino[4,3- d]pyrimidine-6-carboxamide”: the “Mean AC1.4” value is listed as “D (D=>20 uM)”.

Regarding `N#Cc1ccnc(NC2(c3ccc(F)cc3)CCC2)n1` [2-{[(4-fluorophenyl)cyclobutyl]amino} pyrimidine-4-carbonitrile], the “Mean AC1.4” value is on record as “D (D=>20 uM)”.

Turning to `CC(C)(Nc1ncc(-c2ccc(C(N)=O)s2)cn1)c1ncccc1Cl` [5-(2-{[1-(3-chloro(2-pyridyl))-isopropyl]amino}pyrimidin-5-yl)thiophene-2-carboxamide], the “Mean AC1.4” value is “B (B=1-10 uM)”.

`Fc1cccnc1C1(Nc2ncc3ccccc3n2)CCC1` [[(3-fluoro(2-pyridyl))cyclobutyl]quinazolin-2-ylamine]: the “Mean AC1.4” value was “D (D=>20 uM)”.

`CC(=O)Nc1n[nH]c2ccc(-c3cnc(NC(C)(C)c4ncccc4Cl)nc3)cc12` [N-[5-(2-{[1-(3-chloro(2-pyridyl))-isopropyl]amina}pyrimidin-5-yl)-1H-indazol-3-yl]acetamide]: the “Mean AC1.4” value is recorded as “B (B=1-10 uM)”.

Regarding `O=c1[nH]cc(-c2cnc(NC[C@]3(c4ncccc4F)C[C@H](F)C3)nc2)c(=O)[nH]1` [5-[2-({[3-fluoro-1-(3-fluoro(2-pyridyl))cyclobutyl]methyl}amino)pyrimidin-5-yl]-1,3-dihydropyrimidine-2,4-dione], the “Mean AC1.4” value is reported as “D (D=>20 uM)”.

`NC(=O)c1n[nH]c2ccc(-c3cnc(NC4(c5ncccc5F)CCC4)nc3)cc12` [5-(2-{[(3-fluoro-2-pyridyl)cyclobutyl]amino}pyrimidin-5-yl)-1H-indazole-3-carboxamide]: the “Mean AC1.4” value was “A (A=<1 uM)”.

`CC(C)(CNc1ncc(C(=O)NC2(C(N)=O)CC2)cn1)c1ccc(F)cc1` [1-[(2-{[2-(4-fluorophenyl)-2-methylpropyl]amino}pyrimidin-5-yl)carbonylamino] cyclopropanecarboxamide]: the “Mean AC1.4” value was “D (D=>20 uM)”.

On to `CC(C)(CNc1ncc(-c2cc(C(N)=O)ccc2F)cn1)c1ncccc1F` [4-fluoro-3-(2-{[2-(3-fluoro(2-pyridyl))-2-methylpropyl]amino}pyrimidin-5-yl)benzamide], for which the “Mean AC1.4” value is “B (B=1-10 uM)”.

On to `NC(=O)c1ccnc(-c2cnc(NC[C@]3(c4ncccc4F)C[C@H](F)C3)nc2)n1` [2-[2-({[3-fluoro-1-(3-fluoro(2-pyridyl))cyclobutyl]methyl}amino)pyrimidin-5-yl]pyrimidine-4-carboxamide], for which the “Mean AC1.4” value was “B (B=1-10 uM)”.

On to `CC(C)(Nc1ncc(-c2cnn(CC(=O)O)c2)cn1)c1ncccc1Cl` [2-[4-(2-{[1-(3-chloro(2-pyridyl))-isopropyl]amino}pyrimidin-5-yl)pyrazolyl]acetic acid], for which the “Mean AC1.4” value is reported as “D (D=>20 uM)”.

Turning to `CC(C)(Nc1ncc(-c2cccc(C(N)=O)c2)cn1)c1ncccc1F` [3-(2-{[1-(3-fluoro(2-pyridyl))-isopropyl]amino}pyrimidin-5-yl)benzamide], the “Mean AC1.4” value was “B (B=1-10 uM)”.

Regarding `COc1nc(NC[C@]2(c3ncccc3F)C[C@H](F)C2)ncc1-c1ccccc1` [{[3-fluoro-1-(3-fluoro(2-pyridyl))cyclobutyl]methyl}(4-methoxy-5-phenylpyrimidin-2-yl)amine], the “Mean AC1.4” value is recorded as “B (B=1-10 uM)”.

For the compound `CC(C)(Nc1ncc(-c2cc(C(N)=O)ccn2)cn1)c1ncccc1Cl` [2-(2-{[1-(3-chloro(2-pyridyl))-isopropyl]amino}pyrimidin-5-yl)pyridine-4-carboxamide], the “Mean AC1.4” value is recorded as “B (B=1-10 uM)”.

For `O=C(O)c1cnc(NC2(c3ccc(F)cc3)CCC2)nc1C(F)(F)F` [2-{[(4-fluorophenyl)cyclobutyl]amino}-4-(trifluoromethyl)pyrimidine-5-carboxylic acid], the “Mean AC1.4” value is “D (D=>20 uM)”.

Turning to `CC(C)(Nc1ncc(-c2cccc(C(N)=O)c2)cn1)c1ncccc1Cl` [3-(2-{[1-(3-chloro(2-pyridyl))-isopropyl]amino}pyrimidin-5-yl)benzamide], the “Mean AC1.4” value is reported as “A (A=<1 uM)”.

Take `CC(C)(Nc1ncc(-c2cncc(C(N)=O)c2)cn1)c1ncccc1Cl` [5-(2-{[1-(3-chloro(2-pyridyl))-isopropyl]amino}pyrimidin-5-yl)pyridine-3-carboxamide]: the “Mean AC1.4” value is “B (B=1-10 uM)”.

With `NC(=O)c1ccc(F)c(-c2cnc(NCC3(c4ncccc4Cl)CC(F)(F)C3)nc2)c1` [3-[2-({[1-(3-chloro(2-pyridyl))-3,3-difluorocyclobutyl]methyl}amino)pyrimidin-5-yl]-4-fluorobenzamide], the “Mean AC1.4” value is “A (A=<1 uM)”.

Take `CNC(=O)c1ccn(-c2cnc(NC[C@]3(c4ncccc4F)C[C@H](F)C3)nc2)c1` [{1-[2-({[3-fluoro-1-(3-fluoro(2-pyridyl))cyclobutyl]methyl}amino)pyrimidin-5-yl]pyrro1-3-yl}-N-methylcarboxamide]: the “Mean AC1.4” value was “B (B=1-10 uM)”.

In the case of `Nc1ncc(F)c(-c2cnc(NC[C@]3(c4ncccc4F)C[C@H](F)C3)nc2)n1` [[5-(2-amino-5-fluoropyrimidin-4-yl)pyrimidin-2-yl]{[3-fluoro-1-(3-fluoro(2-pyridyl))cyclobutyl]methyl}amine], the “Mean AC1.4” value is “B (B=1-10 uM)”.

In the case of `CC(C)[C@@H](Nc1ncc(-c2ncc(C#N)s2)cn1)c1ncccc1Cl` [2-(2-{[(1R)-1-(3-chloro(2-pyridyl))-2-methylpropyl]amino}pyrimidin-5-yl)-1,3-thiazole-5-carbonitrile], the “Mean AC1.4” value was “D (D=>20 uM)”.

Take `N#Cc1cnc(NC2(c3ncccc3F)CCC2)nc1` [2-{[(3-fluoro-2-pyridyl)cyclobutyl]amino} pyrimidine-5-carbonitrile]: the “Mean AC1.4” value was “D (D=>20 uM)”.

Turning to `NC(=O)c1ccc(F)c(-c2cnc(NCC3(c4ncccc4F)CC(F)C3)nc2)c1` (stereo not drawn) [4-fluoro-3-[2-({[3-fluoro-1-(3-fluoro(2-pyridyl))cyclobutyl]methyl}amino)pyrimidin-5-yl]benzamide], the “Mean AC1.4” value was “A (A=<1 uM)”.

As for `CC(C)(Nc1ncc(-c2cc(CC(N)=O)ccc2F)cn1)c1ncccc1F` [2-[4-fluoro-3-(2-{[1-(3-fluoro(2-pyridyl))-isopropyl]amino}pyrimidin-5-yl)phenyl]acetamide], the “Mean AC1.4” value is reported as “B (B=1-10 uM)”.

With `NC(=O)c1cccc(-c2cnc(NCC3(c4ncccc4Cl)CCC3)nc2)c1` [3-[2-({[(3-chloro-2-pyridyl)cyclobutyl]methyl}amino)pyrimidin-5-yl]benzamide], the “Mean AC1.4” value is “A (A=<1 uM)”.

On to `Nc1nccc(-c2cnc(NC[C@]3(c4ncccc4F)C[C@H](F)C3)nc2)n1` [[5-(2-aminopyrimidin-4-yl)pyrimidin-2-yl]{[3-fluoro-1-(3-fluoro(2-pyridyl))cyclobutyl]methyl)amine], for which the “Mean AC1.4” value is recorded as “C (C=10-20 uM)”.

As for `CNC(=O)c1cccc(-c2cnc(NC[C@]3(c4ncccc4F)C[C@H](F)C3)nc2)c1O` [{3-[2-({[3-fluoro-1-(3-fluoro(2-pyridyl))cyclobutyl]methyl}amino)pyrimidin-5-yl]-2-hydroxyphenyl}-N-methylcarboxamide], the “Mean AC1.4” value was “B (B=1-10 uM)”.

For `CC(C)(Nc1ncc(-c2cn3c(C(N)=O)csc3n2)cn1)c1ncccc1Cl`, the “Mean AC1.4” value is “B (B=1-10 uM)”.

On to `Nc1ccc(-c2cnc(NC[C@]3(c4ncccc4F)C[C@H](F)C3)nc2)nn1` [[5-(6-aminopyridazin-3-yl)pyrimidin-2-yl]{[3-fluoro-1-fluoro(2-pyridyl))cyclobutyl]methyl}amine], for which the “Mean AC1.4” value is “B (B=1-10 uM)”.

On to `NC(=O)c1cccc(-c2cnc(NCC3(c4ncccc4F)CCC3)nc2)c1` [3-[2-({[(3-fluoro-2-pyridyl)cyclobutyl]methyl}amino)pyrimidin-5-yl]benzamide], for which the “Mean AC1.4” value is “A (A=<1 uM)”.

Turning to `Fc1ccc(C2(Nc3ncc4cn[nH]c4n3)CCC2)cc1` [[(4-fluorophenyl)cyclobutyl]pyrazolo[5,4-d]pyrimidin-6-ylamine], the “Mean AC1.4” value is “D (D=>20 uM)”.

In the case of `NC(=O)c1ccc(F)c(-c2cnc(NC3(c4ccc(F)cc4)CCC3)nc2)c1` [4-fluoro-3-(2-{[(4-fluorophenyl)cyclobutyl]amino}pyrimidin-5-yl)benzamide], the “Mean AC1.4” value is listed as “A (A=<1 uM)”.

As to `N#Cc1ccnc(-c2cnc(NC[C@]3(c4ncccc4F)C[C@H](F)C3)nc2)n1` [2-[2-({[3-fluoro-1-(3-fluoro(2-pyridyl))cyclobutyl]methyl}amino)pyrimidin-5-yl]pyrimidine-4-carbonitrile], the “Mean AC1.4” value is “B (B=1-10 uM)”.

For the compound `O=C(NC1CC(O)C1)c1ccc(F)c(-c2cnc(NC[C@]3(c4ncccc4F)C[C@H](F)C3)nc2)c1` (stereo partly drawn) [{4-fluoro-3-[2-({[3-fiuoro-1-(3-fluoro(2-pyridyl))cyclobutyl]methyl}amino)pyrimidin-5-yl]phenyl}-N-(3-hydroxycyclobutyl)carboxamide], the “Mean AC1.4” value is “A (A=<1 uM)”.

For `CC(C)(CNc1ncc(C(=O)NC2(C(=O)O)CC2)cn1)c1ccc(F)cc1` [1-[(2-{[2-(4-fluorophenyl)-2-methylpropyl]amino}pyrimidin-5-yl)carbonylamino] cyclopropanecarboxylic acid], the “Mean AC1.4” value was “D (D=>20 uM)”.

Consider `C[S+]([O-])c1ccccc1C(C)(C)Nc1ncc(-c2cccc(C(N)=O)c2)cn1` (stereo not drawn) [3-(2-(2-(2-(methylsulfinyl)phenyl)propan-2-ylamino)pyrimidin-5-yl)benzamide], for which the “Mean AC1.4” value was “D (D=>20 uM)”.
